# ChEMBL document CHEMBL1149774, “Synthesis of N-(5,7-diamino-3-phenyl-quinoxalin-2-yl)-3,4,5-substituted anilines and N-[4[(5,7-diamino-3-phenylquinoxalin-2-yl)amino]benzoyl]-l-glutamic acid diethyl ester: evaluation of in vitro anti-cancer and anti-folate activities” (Eur J Med Chem, 2008)
# Experiments:
# Type in all cases: functional
# [1] = Growth inhibition of human HS 578T cells after 48 hrs by SRB staining method
# UACC-62 = experiment: Growth inhibition of human UACC62 cells after 48 hrs by SRB staining method; conditions: UACC-62, 48 h
# NCI-H522 = experiment: Growth inhibition of human NCI-H522 cells after 48 hrs by SRB staining method; conditions: NCI-H522, 48 h
# RPMI-8226 = experiment: Growth inhibition of human RPMI8226 cells after 48 hrs by SRB staining method; conditions: RPMI-8226, 48 h
# SK-MEL-28 = experiment: Growth inhibition of human SK-MEL-28 cells after 48 hrs by SRB staining method; conditions: SK-MEL-28, 48 h
# UO-31 = experiment: Growth inhibition of human UO31 cells after 48 hrs by SRB staining method; conditions: UO-31, 48 h
# SW-620 = experiment: Growth inhibition of human SW620 cells after 48 hrs by SRB staining method; conditions: SW-620, 48 h
# U-251 = experiment: Growth inhibition of human U251 cells after 48 hrs by SRB staining method; conditions: U-251, 48 h
# KM12 = experiment: Growth inhibition of human KM12 cells after 48 hrs by SRB staining method; conditions: KM12, 48 h
# NCI/ADR-RES = experiment: Growth inhibition of human NCI/ADR-RES cells after 48 hrs by SRB staining method
# NCI-H460 = experiment: Growth inhibition of human NCI-H460 cells after 48 hrs by SRB staining method; conditions: NCI-H460, 48 h
# NCI-H322M = experiment: Growth inhibition of human NCI-H322M cells after 48 hrs by SRB staining method
# LOX IMVI = experiment: Growth inhibition of human LOX IMVI cells after 48 hrs by SRB staining method
# HCT-15 = experiment: Growth inhibition of human HCT15 cells after 48 hrs by SRB staining method; conditions: HCT-15, 48 h
# ACHN = experiment: Growth inhibition of human ACHN cells after 48 hrs by SRB staining method
# SN12C = experiment: Growth inhibition of human SN12C cells after 48 hrs by SRB staining method
# SK-MEL-2 = experiment: Growth inhibition of human SK-MEL-2 cells after 48 hrs by SRB staining method; conditions: SK-MEL-2, 48 h
# EKVX = experiment: Growth inhibition of human EKVX cells after 48 hrs by SRB staining method
# NCI-H23 = experiment: Growth inhibition of human NCI-H23 cells after 48 hrs by SRB staining method; conditions: NCI-H23, 48 h
# SK-MEL-5 = experiment: Growth inhibition of human SK-MEL-5 cells after 48 hrs by SRB staining method; conditions: SK-MEL-5, 48 h
# OVCAR-8 = experiment: Growth inhibition of human OVCAR8 cells after 48 hrs by SRB staining method; conditions: OVCAR-8, 48 h
# RXF 393 = experiment: Growth inhibition of human RXF393 cells after 48 hrs by SRB staining method; conditions: RXF 393, 48 h
# A498 = experiment: Growth inhibition of human A498 cells after 48 hrs by SRB staining method; conditions: A498, 48 h
# SR = experiment: Growth inhibition of human SR cells after 48 hrs by SRB staining method
# DU-145 = experiment: Growth inhibition of human DU145 cells after 48 hrs by SRB staining method; conditions: DU-145, 48 h
# NCI-H226 = experiment: Growth inhibition of human NCI-H226 cells after 48 hrs by SRB staining method; conditions: NCI-H226, 48 h
# SF-268 = experiment: Growth inhibition of human SF268 cells after 48 hrs by SRB staining method; conditions: SF-268, 48 h
# K562 = experiment: Growth inhibition of human K562 cells after 48 hrs by SRB staining method; conditions: K562, 48 h
# SK-OV-3 = experiment: Growth inhibition of human SKOV3 cells after 48 hrs by SRB staining method; conditions: SK-OV-3, 48 h
# HOP-62 = experiment: Growth inhibition of human HOP62 cells after 48 hrs by SRB staining method; conditions: HOP-62, 48 h
# SNB-19 = experiment: Growth inhibition of human SNB19 cells after 48 hrs by SRB staining method; conditions: SNB-19, 48 h
# 786-0 = experiment: Growth inhibition of human 786-0 cells after 48 hrs by SRB staining method; conditions: 786-0, 48 h
# A549 = experiment: Growth inhibition of human A549 cells after 48 hrs by SRB staining method; conditions: A549, 48 h
# [2] = read-out: pLC50 (the source's name) (converted)
smiles,measurement,setting,value
Nc1cc(N)c2nc(-c3ccccc3)c(Nc3ccc(F)cc3)nc2c1,GI50,[1],19.1 µM
same,CC50,[1]; [2],> 100 µM
same,TGI,[1]; read-out: pTGI (converted),58.9 µM
same,GI50,UACC-62,16.2 µM
same,TGI,UACC-62; read-out: pTGI (converted),31.6 µM
same,GI50,NCI-H522,> 100 µM
same,TGI,NCI-H522; read-out: pTGI (converted),> 100 µM
same,GI50,RPMI-8226,4.68 µM
same,CC50,RPMI-8226; [2],> 100 µM
same,TGI,RPMI-8226; read-out: pTGI (converted),34.7 µM
same,GI50,SK-MEL-28,20.4 µM
same,CC50,SK-MEL-28; [2],75.9 µM
same,TGI,SK-MEL-28; read-out: pTGI (converted),38.9 µM
same,GI50,UO-31,17 µM
same,CC50,UO-31; [2],> 100 µM
same,TGI,UO-31; read-out: pTGI (converted),61.7 µM
same,GI50,SW-620,13.5 µM
same,CC50,SW-620; [2],> 100 µM
same,TGI,SW-620; read-out: pTGI (converted),38.9 µM
same,GI50,U-251,5.62 µM
same,TGI,U-251; read-out: pTGI (converted),20 µM
same,GI50,KM12,12 µM
same,TGI,KM12; read-out: pTGI (converted),29.5 µM
same,GI50,NCI/ADR-RES,24 µM
same,CC50,NCI/ADR-RES; [2],> 100 µM
same,TGI,NCI/ADR-RES; read-out: pTGI (converted),57.5 µM
same,GI50,NCI-H460,26.3 µM
same,TGI,NCI-H460; read-out: pTGI (converted),> 100 µM
same,GI50,NCI-H322M,17 µM
same,TGI,NCI-H322M; read-out: pTGI (converted),35.5 µM
same,GI50,LOX IMVI,4.79 µM
same,TGI,LOX IMVI; read-out: pTGI (converted),18.2 µM
same,GI50,HCT-15,12.6 µM
same,TGI,HCT-15; read-out: pTGI (converted),38 µM
same,GI50,ACHN,10.2 µM
same,CC50,ACHN; [2],49 µM
same,TGI,ACHN; read-out: pTGI (converted),22.4 µM
same,GI50,SN12C,15.8 µM
same,CC50,SN12C; [2],74.1 µM
same,TGI,SN12C; read-out: pTGI (converted),33.9 µM
same,GI50,SK-MEL-2,29.5 µM
same,TGI,SK-MEL-2; read-out: pTGI (converted),> 100 µM
same,GI50,EKVX,12 µM
same,CC50,EKVX; [2],75.9 µM
same,TGI,EKVX; read-out: pTGI (converted),30.2 µM
same,GI50,NCI-H23,22.4 µM
same,TGI,NCI-H23; read-out: pTGI (converted),49 µM
same,GI50,SK-MEL-5,14.5 µM
same,TGI,SK-MEL-5; read-out: pTGI (converted),33.1 µM
same,GI50,OVCAR-8,12.3 µM
same,CC50,OVCAR-8; [2],74.1 µM
same,TGI,OVCAR-8; read-out: pTGI (converted),30.2 µM
same,GI50,RXF 393,8.71 µM
same,CC50,RXF 393; [2],85.1 µM
same,TGI,RXF 393; read-out: pTGI (converted),28.8 µM
same,GI50,A498,17.4 µM
same,CC50,A498; [2],66.1 µM
same,TGI,A498; read-out: pTGI (converted),20 µM
same,GI50,SR,5.37 µM
same,GI50,DU-145,12 µM
same,CC50,DU-145; [2],66.1 µM
same,TGI,DU-145; read-out: pTGI (converted),28.2 µM
same,GI50,NCI-H226,17.8 µM
same,TGI,NCI-H226; read-out: pTGI (converted),47.9 µM
same,GI50,SF-268,13.2 µM
same,CC50,SF-268; [2],> 100 µM
same,TGI,SF-268; read-out: pTGI (converted),40.7 µM
same,GI50,K562,5.01 µM
same,CC50,K562; [2],> 100 µM
same,TGI,K562; read-out: pTGI (converted),> 100 µM
same,GI50,SK-OV-3,40.7 µM
same,CC50,SK-OV-3; [2],> 100 µM
same,TGI,SK-OV-3; read-out: pTGI (converted),> 100 µM
same,GI50,HOP-62,38 µM
same,TGI,HOP-62; read-out: pTGI (converted),> 100 µM
same,GI50,SNB-19,21.9 µM
same,TGI,SNB-19; read-out: pTGI (converted),39.8 µM
same,GI50,786-0,17.4 µM
same,CC50,786-0; [2],> 100 µM
same,TGI,786-0; read-out: pTGI (converted),53.7 µM
same,GI50,A549,17.4 µM
same,CC50,A549; [2],> 100 µM
same,TGI,A549; read-out: pTGI (converted),44.7 µM
